Columns and labels:
Format in all cases: in vivo
[1] = tested on: Larvae of Spodoptera litura; test: Larvae of Spodoptera litura, method using artificial feeds; settings: artificial feed, after 7 days; for pest or weed control at 20 ppm: Spodoptera litura, 168 h, read-out: insecticidal activity (pesticidal ratio)
Procedure: (§1) Unless not mentioned otherwise, the test solutions were prepared as follows:
(§2) Solvent: 3 parts by weight Dimethylformamide
(§3) Emulsifier: 1 part by weight Polyoxyethylene alkyl phenyl ether
(§4) In order to make an appropriate formulation of an active compound, 1 part by weight of the active compound is mixed with the above mentioned amount of solvent and emulsifier and the mixture is diluted with water to a prescribed concentration. Ammonium salt or ammonium salt and penetration enhancer in a dosage of 1000 ppm are added to the desired concentration if necessary.
[A Method Using Artificial Feeds (Trade Name: Insecta LFM, Manufactured by Nosan Corporation)]
Powdery artificial feeds (2.3 g) were added to a plastic cup (diameter: 7.5 cm, height: 4 cm) to achieve a certain thickness. Water-diluted liquid (5 ml) of the active compound prepared above having predetermined concentration was evenly poured thereto and allowed to stand until the feeds were solidified. Five of the 3rd-instar larvae of Spodoptera litura were released in respective cups, and covered. The cups were put in a temperature controlled room at 25° C. and humidity of 50 to 60%, and the number of dead larvae after 7 days was determined to calculate the pesticidal ratio. 100% pesticidal ratio means death of all the larvae, while 0% pesticidal ratio means no dead larvae.

[2] = tested on: Two-Spotted Spider Mite (Tetranychus urticae); test: Two-spotted spider mite (Tetranychus urticae) spray test on kidney bean; settings: after 7 days; for pest or weed control at 20 ppm: Tetranychus urticae, 168 h, read-out: acaricidal activity
Procedure: as §1, §2, §3, §4
50 to 100 adult mites of Tetranychus urticae were inoculated to leaves of kidney bean at two-leaf stage planted in a pot of 6 cm in diameter. After one day, test solution at the appropriate concentration was sprayed thereon in a sufficient amount using a spray gun. After the spraying, the plant pot was placed inside a greenhouse, and after 7 days, the acaricidal activity was calculated. An acaricidal activity of 100% means that all mites were killed, whereas an acaricidal activity of 0% means that no mite was killed.

[3] = tested on: Cucurbit Leaf Beetle (Aulacophora femoralis); test: Cucurbit leaf beetle (Aulacophora femoralis) cucumber leaf dip test; settings: after 7 days
Procedure: as §1, §2, §3, §4
Leaves of cucumber were immersed in the test solution at the appropriate concentration, and the leaves were dried in air. The leaves were then put in a plastic cup containing sterilized black soil and five Aulacophora femoralis at second instar larvae were released in the cup. The cups were placed in a temperature-controlled chamber at 25° C. After 7 days, the number of dead larvae was counted, and thus the insecticidal activity was calculated. An insecticidal activity of 100% means that all larvae were killed, whereas an insecticidal activity of 0% means that no larva was killed.

[4] = active compound concentration 20 ppm
[5] = active compound concentration 4 ppm
[6] = active compound concentration 100 ppm

SMILES | insecticidal activity (pesticidal ratio) [1, 4] [%] | acaricidal activity [2, 4] [%] | insecticidal activity [3, 4] [%] | other results
O=C(CC(F)(F)F)NCc1ccc(N2CCC(c3cc(Cl)c(Cl)c(Cl)c3)(C(F)(F)F)C2O)cc1C(F)(F)F (stereo not shown) [A1-51] | 100 | 100 | 100 | –
CC(=O)NCc1ccc(N2CCC(c3cc(Cl)cc(Cl)c3F)(C(F)(F)F)C2O)nc1C(F)(F)F (stereo not shown) [A3-344] | – | 100 | – | insecticidal activity (pesticidal ratio) [1, 5]: 100%; insecticidal activity [3, 5]: 100%
O=C(NCc1ccc(N2CCC(c3cc(Cl)c(F)c(Cl)c3)(C(F)(F)F)C2O)cc1C(F)(F)F)C1CC1 (stereo not shown) [A1-275] | 100 | 100 | 100 | –
N#CCC(=O)NCc1ccc(N2CCC(c3cc(Cl)c(Cl)c(Cl)c3)(C(F)(F)F)C2O)cc1Br (stereo not shown) [A1-525] | – | – | – | insecticidal activity (pesticidal ratio) [1, 5]: 100%; acaricidal activity [2, 5]: 100%
CCCC(=O)NCc1ccc(N2CCC(c3cc(Cl)cc(Cl)c3)(C(F)(F)F)C2O)cc1C(F)(F)F (stereo not shown) [A1-36] | 100 | 100 | – | –
CCC(=O)NCc1ccc(N2CCC(c3cc(Cl)c(F)c(Cl)c3)(C(F)(F)F)C2O)cc1C(F)(F)F (stereo not shown) [A1-272] | 100 | 100 | 100 | –
O=C(NCc1ccc(N2CCC(c3ccc(F)c(C(F)(F)F)c3)(C(F)(F)F)C2O)cc1C(F)(F)F)C1CC1 (racemic) [A1-308] | 100 | 100 | 100 | –
Cc1nc(N2CCC(c3cc(Cl)c(Cl)c(Cl)c3)(C(F)(F)F)C2O)ccc1CNC(=O)CC(F)(F)F (stereo not shown) [A3-84] | 100 | 100 | 100 | –
CC(=O)NCc1ccc(N2CCC(c3cc(Cl)c(Cl)c(Cl)c3)(C(F)(F)F)C2O)cc1Cl (stereo not shown) [A1-12] | 100 | 100 | – | –
COCCC(=O)NCc1ccc(N2CCC(c3cc(Cl)cc(Cl)c3)(C(F)(F)F)C2O)cc1C(F)(F)F (stereo not shown) [A1-41] | 100 | 100 | – | –
CCc1nc(N2CCC(c3cc(C(F)(F)F)cc(C(F)(F)F)c3)(C(F)(F)F)C2O)ccc1CNC(=O)C1CC1 (stereo not shown) [A3-137] | 100 | 100 | 100 | –
CC(=O)NCc1ccc(N2CCC(c3cc(C(F)(F)F)cc(C(F)(F)F)c3)(C(F)(F)F)C2O)cc1Cl (stereo not shown) [A1-23] | 100 | 100 | 100 | –
CS(=O)(=O)CC(=O)NCc1cnc(N2CCC(c3cc(C(F)(F)F)cc(C(F)(F)F)c3)(C(F)(F)F)C2O)nc1C(F)(F)F (stereo not shown) [A4-33] | 100 | 100 | 100 | –
N#CCC(=O)NCc1ccc(N2CCC(c3cc(Cl)c(Cl)c(Cl)c3)(C(F)(F)F)C2O)nc1C(F)(F)F (stereo not shown) [A3-421] | – | 100 | – | insecticidal activity (pesticidal ratio) [1, 5]: 100%
CCC(=O)NCc1cnc(N2CCC(c3cc(C(F)(F)F)cc(C(F)(F)F)c3)(C(F)(F)F)C2O)nc1C(F)(F)F (stereo not shown) [A4-24] | 100 | 100 | 100 | –
CSCC(=O)NCc1ccc(N2CCC(c3cc(C(F)(F)F)cc(C(F)(F)F)c3)(C(F)(F)F)C2O)cc1Cl (stereo not shown) [A1-31] | 100 | 100 | 100 | –
O=C(NCc1ccc(N2CCC(c3cc(F)c(F)c(F)c3)(C(F)(F)F)C2O)cc1C(F)(F)F)C1CC1 (stereo not shown) [A1-264] | – | 100 | 100 | insecticidal activity (pesticidal ratio) [1, 5]: 80%; insecticidal activity [3, 5]: 100%
CC(C)(C)OC(=O)NCc1ccc(N2CCC(c3cc(Cl)c(Cl)c(Cl)c3)(C(F)(F)F)C2O)cc1 (stereo not shown) [A1-575] | – | – | – | insecticidal activity (pesticidal ratio) [1, 6]: 80%; acaricidal activity [2, 6]: 98%; insecticidal activity [3, 6]: 100%

SMILES | insecticidal activity (pesticidal ratio) [1, 4] [%] | acaricidal activity [2, 4] [%] | insecticidal activity [3, 4] [%] | other results
CS(=O)(=O)CC(=O)NCc1ccc(N2CCC(c3cc(Cl)cc(Cl)c3)(C(F)(F)F)C2O)cc1C(F)(F)F (stereo not shown) [A1-44] | 100 | 100 | 100 | –
C[S+]([O-])CC(=O)NCc1ccc(N2CCC(c3cc(Cl)cc(Cl)c3)(C(F)(F)F)C2O)cc1C(F)(F)F (stereo not shown) [A1-43] | 100 | 100 | 100 | –
O=C(NCc1ccc(N2CCC(c3cccc(C(F)(F)F)c3)(C(F)(F)F)C2O)cc1C(F)(F)F)C1CC1 (racemic) [A1-297] | 100 | 100 | 100 | –
O=C(CC(F)(F)F)NCc1ccc(N2CCC(c3cc(Cl)cc(Cl)c3)(C(F)(F)F)C2O)nc1C(F)(F)F (stereo not shown) [A3-7] | 100 | 100 | 100 | –
O=C(NCc1ccc(N2CCC(c3cc(Cl)c(F)c(Cl)c3)(C(F)(F)F)C2O)nc1C(F)(F)F)C1CC1 (mixture of isomers) [A3-203] | 100 | 100 | 100 | –
COCCC(=O)NCc1ccc(N2CCC(c3cc(Cl)c(Cl)c(Cl)c3)(C(F)(F)F)C2O)nc1C(F)(F)F (stereo not shown) [A3-19] | 100 | 100 | 100 | insecticidal activity (pesticidal ratio) [1, 5]: 100%; acaricidal activity [2, 5]: 100%; insecticidal activity [3, 5]: 100%
O=C(CC(F)(F)F)NCc1ccc(N2CCC(c3cc(C(F)(F)F)cc(C(F)(F)F)c3)(C(F)(F)F)C2O)nc1C(F)(F)F (stereo not shown) [A3-29] | 100 | 100 | 100 | –
CCC(=O)NCc1ccc(N2CCC(c3cc(Cl)c(Cl)c(Cl)c3)(C(F)(F)F)C2O)cc1Br (stereo not shown) [A1-162, N-{2-bromo-4-[2-hydroxy-3-(3,4,5-trichlorophenyl)-3-(trifluoromethyl)pyrrolidin-1-yl]benzyl}propanamide] | – | – | – | pest or weed control at 20 ppm [1, 4]: 100%; pest or weed control at 20 ppm [2, 4]: 100%; pest or weed control at 20 ppm ([3]; Aulacophora, foliar, 168 h, active compound concentration 20 ppm, read-out: insecticidal activity): 100%
CSCC(=O)NCc1ccc(N2CCC(c3cc(Cl)cc(Cl)c3)(C(F)(F)F)C2O)cc1C(F)(F)F (stereo not shown) [A1-42] | 100 | 100 | 100 | –
CCC(=O)NCc1ccc(N2CCC(c3cc(Cl)c(Cl)c(Cl)c3)(C(F)(F)F)C2O)nc1C (stereo not shown) [A3-79, N-({6-[2-hydroxy-3-(3,4,5-trichlorophenyl)-3-(trifluoromethyl)-pyrrolidin-1-yl]-2-methylpyridin-3-yl}methyl)propanamide] | – | – | – | pest or weed control at 20 ppm [1, 4]: 100%; pest or weed control at 20 ppm [2, 4]: 100%
CC(=O)NC(C)c1ccc(N2CCC(c3cc(Cl)c(Cl)c(Cl)c3)(C(F)(F)F)C2O)cc1 (mixture of isomers) [A2-12] | 100 | 100 | – | –
CC(=O)NCc1ccc(N2CCC(c3cc(Cl)c(F)c(Cl)c3F)(C(F)(F)F)C2O)nc1Br (stereo not shown) [A3-322] | – | 98 | – | insecticidal activity (pesticidal ratio) [1, 5]: 100%
CC(=O)NCc1ccc(N2CCC(c3cc(Cl)c(Cl)c(Cl)c3)(C(F)(F)F)C2O)cc1C(F)(F)F (stereo not shown) [A1-45] | 100 | 100 | – | –
CC(C)CC(=O)NCc1ccc(N2CCC(c3cc(Cl)c(Cl)c(Cl)c3)(C(F)(F)F)C2O)nc1C(F)(F)F (stereo not shown) [A3-288] | 100 | 100 | – | insecticidal activity (pesticidal ratio) [1, 5]: 100%; acaricidal activity [2, 5]: 100%
CS(=O)(=O)CC(=O)NCc1ccc(N2CCC(c3cccc(C(F)(F)F)c3)(C(F)(F)F)C2O)cc1C(F)(F)F (racemic) [A1-303] | – | 100 | 100 | –
CCNC(=O)NCc1ccc(N2CCC(c3cc(Cl)c(Cl)c(Cl)c3)(C(F)(F)F)C2O)nc1C(F)(F)F (stereo not shown) [A3-297] | 100 | 100 | – | insecticidal activity (pesticidal ratio) [1, 5]: 100%; acaricidal activity [2, 5]: 100%
COCCC(=O)NCc1ccc(N2CCC(c3cc(Cl)cc(Cl)c3)(C(F)(F)F)C2O)cc1Cl (stereo not shown) [A1-8] | – | 100 | 100 | –
